Tested on: TEAD-YAP/TAZ interaction
Test: CTGF ELISA assay
Format: cell-based, human
Conditions: CTGF in culture supernatant of NCI-H2052 cells, 24 hours with compound
Method: The detection of CTGF expression level can assessed the binding activity of TEAD-YAP/TAZ transcription factor, and the CTGF expression level was quantified by SimpleStep ELISA® kit (Abcam, ab261851).
NCI-H2052 cells (Purchased from ATCC) were cultured in RPMI 1640 medium, adding 10% FBS and 1% Penicillin-Streptomycin Solution and 1 mM Sodium pyruvate. The day before compounds treatment, the cultured cells were washed with PBS and digested with trypsin, then centrifuged and collected. Discarded the supernatant, the cells were resuspended in fresh complete medium. After cells counted, cells were seeded at 6500 cells/well in 96-well plates. And then cells were cultured overnight in incubator (37° C., 5% CO2).
After the cells were cultured overnight, discarded the culture supernatant, then washed with PBS solution, cells were incubated with 200 μl medium containing compounds in each well. The starting concentration was 10 μM and serial dilution in DMSO and medium were performed to achieve a final DMSO concentration of 0.5% (Final compounds concentration were 10000, 2500, 625, 156, 39.1, 9.77, 2.44, 0.61 nM, 0 nM (0.5% DMSO), The cells were then cultured in incubator (37° C., 5% CO2). Cultured for 24 hours, the cells were centrifuged at 1500 RPM at 4° C. for 5 minutes, and then 50 μl of culture supernatant were tested for CTGF ELISA assay.
The Human CTGF SimpleStep ELISA® Kit (Abcam, ab261851) employs an affinity tag labeled capture antibody and a reporter conjugated detector antibody which immunocapture the sample analyte in solution. This entire complex (capture antibody/analyte/detector antibody) is in turn immobilized via immunoaffinity of an anti-tag antibody coating the well. To perform the assay, samples or standards are added to the wells, followed by the antibody mix (capture antibody/detector antibody). After incubation, the wells are washed to remove unbound material. TMB Development Solution is added and during incubation is catalyzed by HRP, generating blue coloration. This reaction is then stopped by addition of Stop Solution completing any color change from blue to yellow. Signal is generated proportionally to the amount of bound analyte and the intensity is measured at 450 nm. Firstly, prepare all reagents, samples, and standards as instructed. Add 50 μl standard or sample to appropriate wells. Then add 50 μl of the Antibody Cocktail to each well. Seal the plate and incubate for 1 hour at room temperature on a plate shaker. Wash each well with Wash Buffer three times. Add 100 μl of TMB Development Solution to each well and incubate for 10 minutes in the dark on a plate shaker. Add 100 μl of Stop Solution to each well. Shake plate on a plate shaker for 1 minute to mix. Record the OD at 450 nm. Determine the concentration of the target protein in the sample by the standard curve.
EC50 value was determined by fitting the concentration response curves using GraphPad Prism software. The compounds of the present invention were tested for their capacity to inhibit TEAD-YAP/TAZ interaction according to the fitted curves of CTGF concentration response to compounds.

EC50 [nM] | Compound
32 | C=C(F)C(=O)N1CC(n2c(=O)n(-c3ccc(C(F)(F)F)cc3)c3cc(C(F)(F)F)cnc32)C1 [Compound 245, 3-(1-(2-fluoroacryloyl)azetidin-3-yl)-6-(trifluoromethyl)-1-(4-(trifluoromethyl)phenyl)-1,3-dihydro-2H-imidazo[4,5-b]pyridin-2-one]
8.1 | C=C(F)C(=O)N1CC(n2nc(-c3ccc(C(F)(F)F)cc3)c3cc(F)cnc32)C1 [Compound 202, 2-fluoro-1-(3-(5-fluoro-3-(4-(trifluoromethyl)phenyl)-1H-pyrazolo[3,4-b]pyridin-1-yl)-azetidin-1-yl)prop-2-en-1-one]
2 | C=C(F)C(=O)N1CC(n2nc(-c3ccc(C(F)(F)F)cc3)c3ccc(Cl)nc32)C1 [Compound 187, 1-(3-(6-chloro-3-(4-(trifluoro-methyl)phenyl)-1H-pyrazolo[3,4-b]pyridin-1-yl)azetidin-1-yl)-2-fluoroprop-2-en-1-one]
0.9 | C=C(F)C(=O)N1CC(n2nc(-c3ccc(C(F)(F)F)cc3)c3ccc(OC)nc32)C1 [Compound 221, 2-fluoro-1-(3-(6-methoxy-3-(4-(trifluoromethyl)phenyl)-1H-pyrazolo[3,4-b]pyridin-1-yl)-azetidin-1-yl)prop-2-en-1-one]
9 | C=C(F)C(=O)N1CC(n2nc(-c3ccc(C(F)(F)F)cc3)c3ccccc32)C1 [Compound 196, 2-fluoro-1-(3-(3-(4-(trifluoro-methyl)phenyl)-1H-indazol-1-yl)azetidin-1-yl)prop-2-en-1-one]
7.2 | C=CC(=O)N1CC(n2nc(-c3ccc(C(F)(F)F)cc3)c3ncn(C)c(=O)c32)C1 [Compound 79, 1-(1-acryloylazetidin-3-yl)-6-methyl-3-(4-(trifluoromethyl)-phenyl)-1,6-dihydro-7H-pyrazolo[4,3-d]pyrimidin-7-one]
0.9 | C=C(F)C(=O)N1CC(n2nc(-c3ccc(C(F)(F)F)nc3)c3nccnc32)C1 [Compound 198, 2-fluoro-1-(3-(3-(6-(trifluoro-methyl)pyridin-3-yl)-1H-pyrazolo[3,4-b]pyrazin-1-yl)-azetidin-1-yl)prop-2-en-1-one]
9.8 | C=C(F)C(=O)N1CC(n2c(=O)n(-c3ccc(C(F)(F)F)cc3)c3ccc(Cl)nc32)C1 [Compound 252, 5-chloro-3-(1-(2-fluoroacryloyl)azetidin-3-yl)-1-(4-(trifluoromethyl)phenyl)-1,3-dihydro-2H-imidazo[4,5-b]pyridin-2-one]
50 | C=CC(=O)N1CCC(n2nc(-c3ccc(C(F)(F)F)nc3)c3cccc(C(=O)NC4CC4)c32)C1 (stereo not shown) [Compound 100, 1-(1-acryloylpyrrolidin-3-yl)-N-cyclopropyl-3-(6-(trifluorometh-yl)pyridin-3-yl)-1H-indazole-7-carboxamide]
24 | C=C(F)C(=O)N1CC(n2nc(-c3ccc(C(F)(F)F)cc3)c3ccc(N(C)C)nc32)C1 [Compound 122, 1-(3-(6-(dimethylamino)-3-(4-(trifluoromethyl)phenyl)-1H-pyrazolo[3,4-b]pyridin-1-yl)-azetidin-1-yl)-2-fluoroprop-2-en-1-one]
12 | C=C(F)C(=O)N1CCC(n2nc(-c3ccc(C(F)(F)F)cc3)c3ncccc32)C1 (stereo not shown) [Compound 71, 2-fluoro-1-(3-(3-(4-(trifluoro-methyl)phenyl)-1H-pyrazolo[4,3-b]pyridin-1-yl)pyrrolidin-1-yl)-prop-2-en-1-one]
40 | C=C(F)C(=O)N1CC(n2nc(-c3ccc(C(F)(F)F)cc3)c3ccc[n+]([O-])c32)C1 [Compound 165, 1-(1-(2-fluoroacryloyl)azetidin-3-yl)-3-(4-(trifluoromethyl)phenyl)-1H-pyrazolo[3,4-b]pyridine 7-oxide]
0.7 | C=C(F)C(=O)N1CC(n2nc(Nc3ccc(C(F)(F)F)cc3)c3ccc(C)nc32)C1 [Compound 11, 2 fluoro-1-(3-(6-methyl-3-((4-(trifluoromethyl)phenyl)amino)-1H-pyrazolo[3,4-b]pyridin-1 yl)azetidin-1 yl)prop-2-en-1-one]
6.4 | C=C(F)C(=O)N1CC(n2c(=O)n(-c3ccc(C(F)(F)F)cc3)c3cccnc32)C1 [Compound 230, 3-(1-(2 fluoroacryloyl)azetidin-3 yl)-1-(4-(trifluoromethyl)phenyl)-1,3-dihydro-2H-imidazo[4,5-b]pyridin-2-one]
84 | C=CC(=O)N1CCC(n2nc(-c3ccc(C(F)(F)F)nc3)c3cccc(C(=O)NC(C)C)c32)C1 (stereo not shown) [Compound 98, 1-(1-acryloylpyrrolidin-3-yl)-N-isopropyl-3-(6-(trifluoromethyl)-pyridin-3-yl)-1H-indazole-7-carboxamide]

Continued, compound first:

Compound | EC50 [nM]
C=CC(=O)N1CCC(n2nc(-c3ccc(C(F)(F)F)cc3)c3cccc(C)c32)C1 (stereo not shown) [Compound 39, 1-(3-(7-methyl-3-(4-(trifluoro-methyl)phenyl)-1H-indazol-1-yl)pyrrolidin-1-yl)prop-2-en-1-one] | 14
C=CC(=O)N1CC(n2nc(-c3ccc(C(F)(F)F)cc3)c3ccc(N(C)C)nc32)C1 [Compound 121, 1-(3-(6-(dimethylamino)-3-(4-(trifluoromethyl)phenyl)-1H-pyrazolo[3,4-b]pyridin-1-yl)-azetidin-1-yl)prop-2-en-1-one] | 3
C=CC(=O)NC1CN(c2nc(-c3ccc(C(F)(F)F)cc3)n3ccccc23)C1 [Compound 13, N-(1-(3-(4-(trifluoromethyl)phenyl)imidazo[1,5-a]pyridin-1 yl)azetidin-3 yl)acrylamide] | 20
C=CC(=O)NC1CCC(n2nc(-c3ccc(C(F)(F)F)cc3)c3ccccc32)C1 (stereo not shown) [Compound 37, N-(3-(3-(4-(trifluoromethyl)phen-yl)-1H-indazol-1-yl)cyclopentyl)-acrylamide] | 42
C=CC(=O)N1CCCC(n2nc(-c3ccc(C(F)(F)F)cc3)c3cccnc32)C1 (stereo not shown) [Compound 33, 1-(3-(3-(4-(trifluoromethyl)phen-yl)-1H-pyrazolo[3,4-b]pyridin-1-yl)piperidin-1-yl)prop-2-en-1-one] | 32
C=CC(=O)N1CCC(Cn2nc(-c3ccc(C(F)(F)F)cc3)c3ccccc32)C1 (stereo not shown) [Compound 34, 1-(3-((3-(4-(trifluoromethyl)phen-yl)-1H-indazol-1-yl)methyl)-pyrrolidin-1-yl)prop-2-en-1-one] | 137
C/C=C/C(=O)N1CCC(n2nc(-c3ccc(C(F)(F)F)cc3)c3ccccc32)C1 (stereo not shown) [Compound 56, (E)-1-(3-(3-(4-(trifluoromethyl)-phenyl)-1H-indazol-1-yl)pyrrol-idin-1-yl)but-2-en-1-one] | 70
C=CC(=O)N1CCC(n2nc(-c3ccc(C(F)(F)F)cc3)c3nc[nH]c(=O)c32)C1 (stereo not shown) [Compound 2, 1-(1-acryloylpyrrolidin-3-yl)-3-(4-(trifluoromethyl)phenyl)-1,6-dihydro-7H-pyrazolo[4,3-d]pyrimidin-7-one] | 25
C=C(F)C(=O)NCC(C=O)n1nc(-c2ccc(C(F)(F)F)cc2)c2cccnc21 (stereo not shown) [Com. EX.1, 2-fluoro-N-(3-oxo-2-(3-(4-(trifluoromethyl)phenyl)-1H-pyrazolo[3,4-b]pyridin-1-yl)propyl)acrylamide, reference compound] | > 10000
C=CC(=O)N1CCC(n2nc(-c3ccc(C(F)(F)F)cc3)c3cccc(C(=O)N(C)C)c32)C1 (stereo not shown) [Compound 103, 1-(1-acryloylpyrrolidin-3-yl)-N,N-dimethyl-3-(4-(trifluoromethyl)-phenyl)-1H-indazole-7-carbox-amide] | 158
C=CC(=O)N1CCC(n2nc(-c3ccc(C(F)(F)F)cc3)c3cccc(C#N)c32)C1 (stereo not shown) [Compound 48, 1-(1-acryloylpyrrolidin-3-yl)-3-(4-(trifluoromethyl)phenyl)-1H-indazole-7-carbonitrile] | 15
C=CC(=O)N1CCC(n2nc(-c3ccc(C(F)(F)F)cc3)c3cccc(Cl)c32)C1 (stereo not shown) [Compound 45, 1-(3-(7-chloro-3-(4-(trifluoro-methyl)phenyl)-1H-indazol-1-yl)-pyrrolidin-1-yl)prop-2-en-1-one] | 15
C=CC(=O)N1CCC(n2nc(-c3ccc(C(F)(F)F)cc3)c3ncn(C)c(=O)c32)C1 (stereo not shown) [Compound 7, 1-(1-acryloylpyrrolidin-3-yl)-6-methyl-3-(4-(trifluoromethyl)phenyl)-1,6-dihydro-7H-pyrazolo[4,3-d]pyrimidin-7-one] | 5
